Measured values: ChEMBL document CHEMBL1201862, “PubChem BioAssay data set” (2004)
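The compound was tested at five concentrations on cells cultured in 96-well plates, with a 48-hour exposure period. GI50: concentration for 50% inhibition of growth.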 Activity calls are given as the source filed them. No stated cut-off is given here; in the data, active = GI50 up to about 1.1 µM and inactive = higher.

Legend:
Assay in all cases: NCI-60 cell line screen, 48 h
ACHN = system: ACHN
EKVX = system: EKVX
PC-3 = system: PC-3
K562 = system: K562
MDA-N = system: MDA-N
HCT-15 = system: HCT-15
SK-MEL-28 = system: SK-MEL-28
RPMI-8226 = system: RPMI-8226
SK-MEL-2 = system: SK-MEL-2
NCI-H23 = system: NCI-H23
SW-620 = system: SW-620
MDA-MB-435 = system: MDA-MB-435
M14 = system: M14
Hs-578T = system: Hs-578T
COLO 205 = system: COLO 205
OVCAR-3 = system: OVCAR-3
SF-295 = system: SF-295
SR = system: SR
SNB-19 = system: SNB-19
SF-539 = system: SF-539
CAKI-1 = system: CAKI-1
UACC-257 = system: UACC-257
SK-MEL-5 = system: SK-MEL-5
LOX IMVI = system: LOX IMVI
NCI-H226 = system: NCI-H226
UO-31 = system: UO-31
OVCAR-4 = system: OVCAR-4
A549 = system: A549
DU-145 = system: DU-145
TK-10 = system: TK-10
SN12C = system: SN12C
NCI-H460 = system: NCI-H460
HT-29 = system: HT-29
IGROV-1 = system: IGROV-1
U-251 = system: U-251
CCRF-CEM = system: CCRF-CEM
SNB-75 = system: SNB-75
OVCAR-8 = system: OVCAR-8
BT-549 = system: BT-549
KM12 = system: KM12
A498 = system: A498
RXF 393 = system: RXF 393
HL-60 = system: HL-60
HCC 2998 = system: HCC 2998
HOP-92 = system: HOP-92
HOP-62 = system: HOP-62
NCI-H522 = system: NCI-H522
MOLT-4 = system: MOLT-4
Malme-3M = system: Malme-3M
OVCAR-5 = system: OVCAR-5
T47D = system: T47D
HCT-116 = system: HCT-116
UACC-62 = system: UACC-62
NCI/ADR-RES = system: NCI/ADR-RES
MDA-MB-231 = system: MDA-MB-231
SK-OV-3 = system: SK-OV-3
786-0 = system: 786-0
MCF7 = system: MCF7
SF-268 = system: SF-268

Measured: GI50

COc1ccc(Cn2c3ccc([N+](=O)[O-])cc3c(=O)n2Cc2ccccn2)cc1
> 100 µM: HCT-15
inactive: ACHN 87.9 µM | EKVX 66.5 µM | PC-3 85.9 µM | K562 67 µM | MDA-N 40.6 µM | SK-MEL-28 > 100 µM | RPMI-8226 34.5 µM | SK-MEL-2 > 100 µM | NCI-H23 66.2 µM | SW-620 > 100 µM | MDA-MB-435 76.4 µM | M14 46 µM | Hs-578T > 100 µM | COLO 205 > 100 µM | OVCAR-3 > 100 µM | SF-295 > 100 µM | SR 63 µM | SNB-19 > 100 µM | SF-539 > 100 µM | CAKI-1 > 100 µM | UACC-257 55.1 µM | SK-MEL-5 24.9 µM | LOX IMVI 78.2 µM | NCI-H226 > 100 µM | UO-31 > 100 µM | OVCAR-4 56.1 µM | A549 > 100 µM | DU-145 > 100 µM | TK-10 > 100 µM | SN12C > 100 µM | NCI-H460 > 100 µM | HT-29 > 100 µM | IGROV-1 > 100 µM | U-251 > 100 µM | CCRF-CEM 62.5 µM | SNB-75 37.8 µM | OVCAR-8 57.7 µM | BT-549 > 100 µM | KM12 92.5 µM | A498 > 100 µM | RXF 393 86.5 µM | HL-60 28.9 µM | HCC 2998 > 100 µM | HOP-92 90.6 µM | HOP-62 > 100 µM | NCI-H522 66.4 µM | MOLT-4 31.3 µM | Malme-3M 80.9 µM | OVCAR-5 > 100 µM | T47D 18.2 µM | HCT-116 > 100 µM | UACC-62 43.9 µM | NCI/ADR-RES 39.7 µM | MDA-MB-231 > 100 µM | SK-OV-3 > 100 µM | 786-0 > 100 µM | MCF7 > 100 µM | SF-268 > 100 µM

COC(=O)CN1Cc2cc(C)cc(c2O)CN(CC(=O)OC)Cc2cc(C)cc(c2O)CN(CC(=O)OC)Cc2cc(C)cc(c2O)CN(CC(=O)OC)Cc2cc(C)cc(c2O)C1
14.6 µM: HCT-15
inactive: ACHN 11.5 µM | EKVX 9.06 µM | PC-3 18.5 µM | K562 21.8 µM | MDA-N > 50 µM | SK-MEL-28 21.9 µM | RPMI-8226 39 µM | SK-MEL-2 13.6 µM | NCI-H23 30.5 µM | SW-620 14.3 µM | MDA-MB-435 26.9 µM | M14 4.92 µM | Hs-578T 38.4 µM | COLO 205 13.7 µM | OVCAR-3 7.05 µM | SF-295 17.5 µM | SR 6.04 µM | SNB-19 16 µM | SF-539 12.8 µM | CAKI-1 24.2 µM | UACC-257 16.8 µM | SK-MEL-5 19.9 µM | LOX IMVI 7.33 µM | NCI-H226 8.04 µM | UO-31 8.89 µM | OVCAR-4 12.2 µM | A549 18.4 µM | DU-145 8.17 µM | TK-10 15.4 µM | SN12C 21.5 µM | NCI-H460 6.85 µM | HT-29 8.79 µM | IGROV-1 19.7 µM | U-251 14 µM | CCRF-CEM 2.03 µM | SNB-75 12.4 µM | OVCAR-8 11 µM | BT-549 24.8 µM | KM12 32.6 µM | A498 18.1 µM | RXF 393 4.19 µM | HL-60 3.03 µM | HCC 2998 13.6 µM | HOP-92 > 50 µM | HOP-62 9.51 µM | NCI-H522 > 100 µM | MOLT-4 9.62 µM | Malme-3M 12.2 µM | OVCAR-5 9.46 µM | T47D 13.2 µM | HCT-116 11.1 µM | UACC-62 39.6 µM | NCI/ADR-RES 19.5 µM | MDA-MB-231 26.7 µM | SK-OV-3 11.9 µM | 786-0 10.2 µM | MCF7 14.1 µM | SF-268 9.89 µM
